Numbered stars: 1 amine (or outer) side, 2 acyl side, 3 side chain; on linkers, the order of the positions; unused ones are H or OH. Bridge positions count the residues as written; N and C are the ends. Square brackets hold non-standard residues; d marks the D form. Side chains are listed from the residue outwards. Peptide text beside a SMILES is read from it. * marks the point of attachment. C20 diacid = O=C(O)CCCCCCCCCCCCCCCCCCC(=O)*; C18 diacid = O=C(O)CCCCCCCCCCCCCCCCC(=O)*; γGlu = O=C(O)[C@H](CCC(=O)[*:2])N[*:1]; αMeF = C[C@](N)(Cc1ccccc1)C(=O)O; Aib = CC(C)(N)C(=O)O
Columns and labels:
[1] = molecular target: T1, human amylin receptor (calcitonin receptor co-expressed with receptor activity modifying protein, RAMP3) (hAMYR3) (Homo sapiens, UniProt O60896+P30988); assay: cAMP production in 1321N1 cells with stable recombinant expression of human amylin receptor (hAMYR3); assay type: cell-based; details: for Ratio (selectivity hAMYR vs hCTR, ratio of EC50 values at the two receptors): EC50 hCTR / EC50 hAMYR3; for EC50: cAMP, 1321N1 cells, assay buffer with 0.1% BSA, read-out: EC50 (pM) hAMYR3
T1 construct: expressed in transfected cells
T1 sequence (P30988 25-474): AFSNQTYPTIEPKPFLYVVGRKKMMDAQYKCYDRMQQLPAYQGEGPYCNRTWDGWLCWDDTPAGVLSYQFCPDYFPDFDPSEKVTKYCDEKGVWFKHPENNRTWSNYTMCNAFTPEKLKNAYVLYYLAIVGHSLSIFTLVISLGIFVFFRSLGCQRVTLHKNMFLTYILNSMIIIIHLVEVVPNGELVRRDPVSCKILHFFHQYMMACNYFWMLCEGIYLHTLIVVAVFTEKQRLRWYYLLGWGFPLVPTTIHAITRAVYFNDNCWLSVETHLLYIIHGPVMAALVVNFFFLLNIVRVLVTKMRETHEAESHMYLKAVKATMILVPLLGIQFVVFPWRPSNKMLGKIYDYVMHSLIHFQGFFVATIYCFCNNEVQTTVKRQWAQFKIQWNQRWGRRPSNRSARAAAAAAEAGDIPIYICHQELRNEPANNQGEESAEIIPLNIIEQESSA
T1 sequence (O60896 24-148 partner): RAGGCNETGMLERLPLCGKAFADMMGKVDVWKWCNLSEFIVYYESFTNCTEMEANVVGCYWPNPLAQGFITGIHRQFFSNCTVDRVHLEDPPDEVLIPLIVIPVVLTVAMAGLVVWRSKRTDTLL
Protocol: (§1) The functional activities of lipidated pramlintide analogue peptides, such as cAMP production, were tested in 1321N1 cell line with stable recombinant expression of human calcitonin receptor (hCTR) or human amylin receptor (calcitonin receptor co-expressed with receptor activity modifying protein, RAMP3) (hAMYR3) or HEK cells with stable recombinant expression of rat calcitonin receptor (rat CTR) or rat amylin receptor (calcitonin receptor co-expressed with receptor activity modifying protein, RAMP3) (Rat AMYR3).
(§2) Cryopreserved cell stock was thawed rapidly in a water-bath, suspended in assay buffer (0.1% BSA (Sigma # A3059) in HBSS (Sigma # H8264) with 25 mM HEPES, pH 7.4 and containing 0.5 mM IB MX (Sigma# 17018)) and spun at 240×g for 5 minutes. Cells were re-suspended in assay buffer at a batch-dependent optimized concentration (e.g. hCTR cells at 0.125×10^5 cells/mL, hAMYR3 cells at 0.125×10^5 cells/mL, rat CTR cells at 1x10^5 cells/mL, rat AMYR3 at 2×10^5 cells/mL).
(§3) The test peptide stock was prepared in DMSO and diluted in assay buffer to reach stated concentrations and transferred in duplicates into a 384-black shallow well microtitre assay plate (Corning # 3676). Cells were added to the assay plate, incubated at room temperature for 30 minutes and the cAMP level measured using cAMP dynamic 2 HTRF kit (Cisbio, Cat # 62AM4PEJ), following the two step protocol as per manufacturer's recommendations. The plates were read on an Envision (Perkin Elmer) using excitation wavelength of 320 nm and emission wavelengths of 620nm & 665 nm.
(§4) Data was transformed to % Delta F as described in the manufacturer's guidelines and analyzed as percent activation of maximal amylin or calcitonin effect by 4-parameter logistic fit to determine EC50 values. The selectivity of a peptide to hAMYR vs hCTR is defined as a ratio of EC50 values at the two receptors.

[2] = molecular target: T2, human calcitonin receptor (hCTR) (Homo sapiens, UniProt P30988); assay: cAMP production in 1321N1 cells with stable recombinant expression of human calcitonin receptor (hCTR); assay type: cell-based; details: cAMP, 1321N1 cells, assay buffer with 0.1% BSA; read-out: EC50 (pM) hCTR
T2 construct: expressed in transfected cells
T2 sequence (P30988 25-474): T1 sequence (P30988 25-474)
Protocol: as §1, §2, §3, §4

Row | Ratio (selectivity hAMYR vs hCTR, ratio of EC50 values at the two receptors) [1] | EC50 [1] | EC50 [2] | Structure (SMILES)
1 | 12 |  |  | CC[C@H](C)[C@H](NC(=O)[C@@H]1CCCN1C(=O)CNC(=O)[C@H](Cc1ccccc1)NC(=O)[C@H](CC(N)=O)NC(=O)[C@H](CC(N)=O)NC(=O)[C@H](CO)NC(=O)[C@H](CO)NC(=O)[C@H](Cc1c[nH]cn1)NC(=O)[C@@H](NC(=O)[C@H](CC(C)C)NC(=O)[C@H](Cc1ccccc1)NC(=O)[C@H](CC(N)=O)NC(=O)[C@H](C)NC(=O)[C@H](CC(C)C)NC(=O)[C@H](CCCNC(=N)N)NC(=O)[C@H](CCC(N)=O)NC(=O)[C@@H](NC(=O)[C@H](C)NC(=O)[C@@H]1CSSC[C@H](NC(=O)[C@@H](N)CCCCNC(=O)CC[C@H](NC(=O)CC[C@H](NC(=O)CCCCCCCCCCCCCCCCCCC(=O)O)C(=O)O)C(=O)O)C(=O)N[C@@H](CC(N)=O)C(=O)N[C@@H]([C@@H](C)O)C(=O)N[C@@H](C)C(=O)N[C@@H]([C@@H](C)O)C(=O)N1)[C@@H](C)O)C(C)C)C(=O)N[C@@H](CC(C)C)C(=O)N1CCC[C@H]1C(=O)N1CCC[C@H]1C(=O)N[C@H](C(=O)N[C@@H](CC(N)=O)C(=O)N[C@H](C(=O)NCC(=O)N[C@@H](CO)C(=O)N[C@@H](CCCNC(=N)N)C(=O)N[C@H](C(=O)N[C@@H](Cc1ccc(O)cc1)C(N)=O)[C@@H](C)O)C(C)C)[C@@H](C)O [Peptide 114] (H-K([γGlu-γGlu-C20 diacid])CNTATCATQRLANFLVHSSNNFGPILPPTNVGSRTY-NH2; disulfide 2-7 (inferred))
2 | 9 | 221 pM |  | CC[C@H](C)[C@H](NC(=O)[C@@H]1CCCN1C(=O)CNC(=O)[C@](C)(Cc1ccccc1)NC(=O)[C@H](CC(N)=O)NC(=O)[C@H](CC(N)=O)NC(=O)[C@H](CO)NC(=O)[C@H](CO)NC(=O)[C@H](Cc1c[nH]cn1)NC(=O)[C@H](CCCNC(=N)N)NC(=O)[C@H](CC(C)C)NC(=O)[C@H](Cc1ccccc1)NC(=O)[C@H](CC(N)=O)NC(=O)[C@H](C)NC(=O)[C@H](CC(C)C)NC(=O)[C@H](CCCNC(=N)N)NC(=O)[C@H](CCC(N)=O)NC(=O)[C@@H](NC(=O)[C@H](C)NC(=O)[C@@H]1CSSC[C@H](NC(=O)[C@@H](N)CCCCNC(=O)CC[C@H](NC(=O)CCCCCCCCCCCCCCCCC(=O)O)C(=O)O)C(=O)N[C@@H](CC(N)=O)C(=O)N[C@@H]([C@@H](C)O)C(=O)N[C@@H](C)C(=O)N[C@@H]([C@@H](C)O)C(=O)N1)[C@@H](C)O)C(=O)N[C@@H](CC(C)C)C(=O)N1CCC[C@H]1C(=O)N1CCC[C@H]1C(=O)N[C@H](C(=O)N[C@@H](CCC(=O)O)C(=O)N[C@H](C(=O)NCC(=O)N[C@@H](CO)C(=O)N[C@@H](CC(N)=O)C(=O)N[C@H](C(=O)N[C@@H](Cc1ccc(O)cc1)C(N)=O)[C@@H](C)O)C(C)C)[C@@H](C)O [Peptide 16, K(γE-C18diacid)[CNTATC]ATQRLANFLRHSSNN(αMePhe)GPILPPTEVGSNTY-amide] (H-K([γGlu-C18 diacid])CNTATCATQRLANFLRHSSNN[αMeF]GPILPPTEVGSNTY-NH2; disulfide 2-7; N-terminus assumed)

The next lines start with the compound.

Row | Structure (SMILES) | Ratio (selectivity hAMYR vs hCTR, ratio of EC50 values at the two receptors) [1] | EC50 [1] | EC50 [2]
3 | CC[C@H](C)[C@H](NC(=O)[C@H](C)NC(=O)[C@@H]1CCCN1C(=O)[C@H](Cc1ccccc1)NC(=O)[C@H](CC(N)=O)NC(=O)[C@@H]1CCCN1C(=O)[C@H](CO)NC(=O)[C@H](CO)NC(=O)[C@H](Cc1c[nH]cn1)NC(=O)[C@@H](NC(=O)[C@H](CC(C)C)NC(=O)[C@H](Cc1c[nH]c2ccccc12)NC(=O)[C@H](CC(N)=O)NC(=O)[C@H](C)NC(=O)[C@H](CC(C)C)NC(=O)[C@H](CCCNC(=N)N)NC(=O)[C@H](CCC(N)=O)NC(=O)[C@@H](NC(=O)[C@H](C)NC(=O)[C@@H]1CSSC[C@H](NC(=O)[C@@H](N)CCCCNC(=O)CC[C@H](NC(=O)CC[C@H](NC(=O)CCCCCCCCCCCCCCCCCCC(=O)O)C(=O)O)C(=O)O)C(=O)N[C@@H](CC(N)=O)C(=O)N[C@@H](C)C(=O)N[C@@H](C)C(=O)N[C@@H]([C@@H](C)O)C(=O)N1)[C@@H](C)O)C(C)C)C(=O)N[C@@H](CC(C)C)C(=O)N[C@@H](CO)C(=O)N1CCC[C@H]1C(=O)N[C@H](C(=O)N[C@@H](CC(N)=O)C(=O)N[C@H](C(=O)NCC(=O)N[C@@H](CO)C(=O)N[C@@H](CC(N)=O)C(=O)N[C@H](C(=O)N[C@@H](Cc1ccc(O)cc1)C(N)=O)[C@@H](C)O)C(C)C)[C@@H](C)O [Peptide 120] (H-K([γGlu-γGlu-C20 diacid])CNAATCATQRLANWLVHSSPNFPAILSPTNVGSNTY-NH2; disulfide 2-7 (inferred)) | 6 |  | 
4 | CC[C@H](C)[C@H](NC(=O)[C@@H]1CCCN1C(=O)CNC(=O)[C@H](Cc1ccccc1)NC(=O)[C@H](CC(N)=O)NC(=O)C(C)(C)NC(=O)[C@H](CO)NC(=O)[C@H](CO)NC(=O)[C@H](Cc1c[nH]cn1)NC(=O)[C@@H](NC(=O)[C@H](CC(C)C)NC(=O)[C@H](Cc1ccccc1)NC(=O)[C@H](CC(N)=O)NC(=O)[C@H](C)NC(=O)[C@H](CC(C)C)NC(=O)[C@H](CCCNC(=N)N)NC(=O)[C@H](CCC(N)=O)NC(=O)[C@@H](NC(=O)[C@H](C)NC(=O)[C@@H]1CSSC[C@H](NC(=O)[C@H](CCCCN)NC(=O)[C@@H](N)CCCCNC(=O)CC[C@H](NC(=O)CCCCCCCCCCCCCCCCC(=O)O)C(=O)O)C(=O)N[C@@H](CC(N)=O)C(=O)N[C@@H]([C@@H](C)O)C(=O)N[C@@H](C)C(=O)N[C@@H]([C@@H](C)O)C(=O)N1)[C@@H](C)O)C(C)C)C(=O)N[C@@H](CC(C)C)C(=O)N1CCC[C@H]1C(=O)N1CCC[C@H]1C(=O)N[C@H](C(=O)N[C@@H](CC(N)=O)C(=O)N[C@H](C(=O)NCC(=O)N[C@@H](CO)C(=O)NC(C)(C)C(=O)N[C@H](C(=O)N[C@@H](Cc1ccc(O)cc1)C(N)=O)[C@@H](C)O)C(C)C)[C@@H](C)O [Peptide 82, K(γE-C18diacid)K[CNTATC]ATQRLANFLVHSS(Aib)NFGPILPPTNVGS(Aib)TY-amide] (H-K([γGlu-C18 diacid])KCNTATCATQRLANFLVHSS[Aib]NFGPILPPTNVGS[Aib]TY-NH2; disulfide 3-8) | 8 | 514 pM | 4280 pM
5 | CC[C@H](C)[C@H](NC(=O)[C@H](C)NC(=O)[C@@H]1CCCN1C(=O)[C@H](Cc1ccccc1)NC(=O)[C@H](CC(N)=O)NC(=O)[C@@H]1CCCN1C(=O)[C@H](CO)NC(=O)[C@H](CO)NC(=O)[C@H](Cc1c[nH]cn1)NC(=O)[C@@H](NC(=O)[C@H](CC(C)C)NC(=O)[C@H](Cc1ccccc1)NC(=O)[C@H](CC(N)=O)NC(=O)[C@H](C)NC(=O)[C@H](CC(C)C)NC(=O)[C@H](CCCNC(=N)N)NC(=O)[C@H](CCC(N)=O)NC(=O)[C@@H](NC(=O)[C@H](C)NC(=O)[C@@H]1CSSC[C@H](NC(=O)[C@@H](N)CCCCNC(=O)CC[C@H](NC(=O)CC[C@H](NC(=O)CCCCCCCCCCCCCCCCCCC(=O)O)C(=O)O)C(=O)O)C(=O)N[C@@H](CC(N)=O)C(=O)N[C@@H]([C@@H](C)O)C(=O)N[C@@H](C)C(=O)N[C@@H]([C@@H](C)O)C(=O)N1)[C@@H](C)O)C(C)C)C(=O)N[C@@H](CC(C)C)C(=O)N[C@@H](CO)C(=O)N1CCC[C@H]1C(=O)N[C@H](C(=O)N[C@@H](CC(N)=O)C(=O)N[C@H](C(=O)NCC(=O)N[C@@H](CO)C(=O)N[C@@H](CC(N)=O)C(=O)N[C@H](C(=O)N[C@@H](Cc1ccc(O)cc1)C(N)=O)[C@@H](C)O)C(C)C)[C@@H](C)O [Peptide 115] (H-K([γGlu-γGlu-C20 diacid])CNTATCATQRLANFLVHSSPNFPAILSPTNVGSNTY-NH2; disulfide 2-7 (inferred)) | 11 |  | 

— patent publication US20240067693A1, “POLYPEPTIDES AND USES THEREOF” (MEDIMMUNE LIMITED, priority 2020, published 2024)
